Test results published in patent publication US20260042763A1, “PE[…] POSITIVE […] THE TREATMENT OF IRRITABLE BOWEL SYNDROME AND OTHER AILMENTS OF THE PERIPHERAL NERVOUS SYSTEM” (The Johns Hopkins University, priority 2022, published 2026).
Read-outs that look alike come from different tables or passages of the source.

Molecular target: T1, human isoforms of GABAA (α3ß2γ2) receptors (Homo sapiens, UniProt P18507+P34903)
T1 construct: expressed in transfected cells
Experiment: Potentiation of GABA-evoked currents at GABAA (α3β2γ2) receptors, automated patch-clamp (QPatch), Example B1
Format: cell-based
Settings: for Emax: Emax of potentiation, read-out: Max %
Procedure: The ability of compounds exemplified above to potentiate the effect of GABA on GABAA receptors (α3β2γ2) was determined using one or more of the methods described below.
Ltk cells stably expressing the human isoforms of GABAA (α3ß2γ2) receptors were used together with submaximal GABA concentrations to investigate the modulatory effects of the test items. Cells were incubated at 37° C. in a humidified atmosphere with 5% CO2 (rel. humidity about 95%). The cells were continuously maintained in and passaged in sterile culture flasks containing a 1:1 mixture of Dulbecco's modified eagle medium and nutrient mixture D-MEM/F-12 (1×, liquid, with L-Glutamine), supplemented with 10% fetal bovine serum and 1.0% Penicillin/Streptomycin solution. The complete medium as indicated above was supplemented with neomycin. In general, cells were passaged at a confluence of about 80 to 90%. For electrophysiological measurements cells were harvested at a confluence of about 80 to 90% from sterile culture flasks containing culture complete medium. Cells were transferred as suspension in PBS to the QPatch 16X or QPatch HTX system to the centrifuge/washer directly. Expression of GABA receptor was induced by adding Dexamethasone to the cells for 24 to 48 h before experimentation.
Modulatory effects of the compounds of this disclosure were investigated using cells stably transfected with GABA-activated channels of the GABAA (α3ß2γ2) subtype together with submaximal GABA concentrations. Expression of GABA receptor were induced by adding Dexamethasone to the cells for 24 to 48 h before experimentation. In general, cells were passaged at a confluence of about 80 to 90%. For electrophysiological measurements cells were harvested at a confluence of about 80 to 90% from sterile culture flasks containing culture complete medium. Cells were transferred as suspension in PBS to the QPatch 16X or QPatch HTX system to the centrifuge/washer directly. Cells were incubated at 37° C. in a humidified atmosphere with 5% CO2 (rel. humidity about 95%). The cells were continuously maintained in and passaged in sterile culture flasks containing a 1:1 mixture of Dulbecco's modified eagle medium and nutrient mixture D-MEM/F-12 (1×, liquid, with L-Glutamine), supplemented with 10% foetal bovine serum and 1.0% Penicillin/Streptomycin solution and neomycin. The 1× bath solution was made at least every 5 days out of a sterile 10× bath solution, which had been prepared prior to the experimental start of the present study and stored at 1° C. to 9° C. The final bath solution included Sodium Chloride 137 mM, Potassium Chloride 4 mM, Calcium Chloride 1.8 mM, Magnesium Chloride 1 mM, HEPES 10 mM, D-Glucose 10 mM, pH (NaOH) 7.4. The 1× intracellular solution was thawed every day and includes Potassium Chloride 130 mM, Magnesium Chloride 1 mM, Mg-ATP 5 mM, HEPES 10 mM, EGTA 5 Mm, pH (KOH) 7.2. Automated patch-clamping: Cells were transferred as suspension in serum-free medium to the QPatch HTX system and kept in the cell storage tank during experiments. All solutions applied to cells including the intracellular solution were maintained at room temperature (19° C. to 30° C.). After formation of a Gigaohm seal between the patch electrodes and transfected individual Ltk cells were ruptured to assure electrical access to the cell interior (whole-cell patch-configuration). Inward currents were measured upon application of 2.0 μM GABA to patch-clamped cells for 4 s. During the entire experiment the cells were voltage-clamped at a holding potential of −80 mV. For the analysis of test items, GABAA receptors were stimulated by 2.0 μM GABA and test item combinations described below. Thirty-second prewash steps with test items was performed in between two agonist applications. […]

[1] = Ltk cells expressing GABAA α3β2γ2, 2.0 μM GABA, whole-cell, holding potential −80 mV

T1 sequence (P34903 29-492): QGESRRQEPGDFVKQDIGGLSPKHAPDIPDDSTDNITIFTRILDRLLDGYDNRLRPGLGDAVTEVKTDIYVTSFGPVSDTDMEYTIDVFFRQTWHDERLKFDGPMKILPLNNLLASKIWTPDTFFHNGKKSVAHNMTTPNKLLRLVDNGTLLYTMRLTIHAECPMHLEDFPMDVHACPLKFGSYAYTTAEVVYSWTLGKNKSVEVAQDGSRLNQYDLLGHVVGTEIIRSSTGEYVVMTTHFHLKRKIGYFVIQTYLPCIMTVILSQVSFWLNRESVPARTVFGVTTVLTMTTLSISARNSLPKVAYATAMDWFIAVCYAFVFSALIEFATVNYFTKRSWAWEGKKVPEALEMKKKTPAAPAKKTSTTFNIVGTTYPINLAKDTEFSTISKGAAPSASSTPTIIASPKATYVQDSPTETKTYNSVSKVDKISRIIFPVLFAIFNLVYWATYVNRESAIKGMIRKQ
T1 sequence (P47870 25-512 partner limits assumed): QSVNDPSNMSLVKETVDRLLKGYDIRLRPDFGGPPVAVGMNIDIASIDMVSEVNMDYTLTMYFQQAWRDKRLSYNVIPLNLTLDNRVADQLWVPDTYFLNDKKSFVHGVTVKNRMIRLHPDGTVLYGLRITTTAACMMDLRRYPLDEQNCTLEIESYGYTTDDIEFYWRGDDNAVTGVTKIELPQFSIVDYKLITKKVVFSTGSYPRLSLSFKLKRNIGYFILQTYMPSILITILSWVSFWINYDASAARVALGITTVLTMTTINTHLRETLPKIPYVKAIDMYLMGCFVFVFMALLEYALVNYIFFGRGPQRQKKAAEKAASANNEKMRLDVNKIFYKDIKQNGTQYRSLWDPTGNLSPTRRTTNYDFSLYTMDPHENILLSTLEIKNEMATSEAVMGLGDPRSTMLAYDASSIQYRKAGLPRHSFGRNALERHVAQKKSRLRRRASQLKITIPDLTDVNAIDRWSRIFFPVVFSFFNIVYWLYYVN
T1 sequence (P18507 40-475): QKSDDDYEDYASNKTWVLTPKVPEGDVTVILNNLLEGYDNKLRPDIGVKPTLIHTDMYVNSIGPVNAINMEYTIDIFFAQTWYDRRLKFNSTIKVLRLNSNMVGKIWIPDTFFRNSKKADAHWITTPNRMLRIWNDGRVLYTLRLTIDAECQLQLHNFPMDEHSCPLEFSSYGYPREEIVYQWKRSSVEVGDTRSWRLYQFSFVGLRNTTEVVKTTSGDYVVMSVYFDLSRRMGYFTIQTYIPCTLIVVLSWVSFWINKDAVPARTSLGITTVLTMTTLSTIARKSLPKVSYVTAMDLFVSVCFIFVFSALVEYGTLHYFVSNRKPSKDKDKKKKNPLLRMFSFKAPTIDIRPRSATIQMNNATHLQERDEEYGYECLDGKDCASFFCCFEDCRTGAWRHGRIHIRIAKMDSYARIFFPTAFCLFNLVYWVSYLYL

| SMILES | EC50 [µM] | Emax [1] [%] | EC50 (Ltk cells expressing GABAA α3β2γ2, 2.0 μM GABA, whole-cell, holding potential −80 mV, read-out: EC50) [µM] |
| --- | --- | --- | --- |
| CC1N=C(c2ccccc2F)c2cc(Cl)ccc2-n2cc(C(=O)O)nc21 (racemic) [Compound 101, 12-Chloro-9-(2-fluorophenyl)-7-methyl-2,5,8-triazatricyclo[8.4.0.0^2,6] tetradeca-1 (10),3,5,8,11,13-hexaene-4-carboxylic acid] | < 0.05 | > 100 | – |
| CC(C)CC1N=C(c2ccccc2F)c2cc(Cl)ccc2-n2cc(C(=O)O)nc21 (stereo not drawn) [Compound 102, 8-chloro-6-(2-fluorophenyl)-4-isobutyl-4H-imidazo[1,2-a][1,4]benzodiazepine-2-carboxylic acid] | – | 50 to 100 | > 0.1 |
| O=C(O)c1cn2c(n1)CN=C(c1ccccc1F)c1cc(Cl)c(F)cc1-2 [Compound 201, 8-chloro-9-fluoro-6-(2-fluorophenyl)-4H-imidazo[1,2-a][1,4]benzodiazepine-2-carboxylic acid] | < 0.05 | > 100 | – |
| C[N+](C)(C)Cc1cn2c(n1)CN=C(c1ccccc1F)c1cc(Cl)ccc1-2 [Compound 202, {[12-chloro-9-(2-fluorophenyl)-2,5,8-triazatricyclo[8.4.0.0^2,6]tetradeca-1 (10),3,5,8,11,13-hexaen-4-yl]methyl}trimethylazanium chloride] | < 0.05 | 50 to 100 | – |
| O=C(O)c1cn2c(n1)CN=C(c1ccccc1F)c1cc(Cl)cc(F)c1-2 [Compound 203, 12-Chloro-14-fluoro-9-(2-fluorophenyl)-2,5,8-triazatricyclo[8.4.0.0^2,6] tetradeca-1 (10),3,5,8,11,13-hexaene-4-carboxylic acid] | 0.05 to 0.1 | 50 to 100 | – |
| Cc1ccccc1C1=NCc2nc(C(=O)O)cn2-c2ccc(Cl)cc21 [Compound 204, 8-chloro-6-(o-tolyl)-4H-imidazo[1,2-a][1,4]benzodiazepine-2-carboxylic acid] | < 0.05 | > 100 | – |
| COc1cc2c(cc1Cl)C(c1ccccc1F)=NCc1nc(C(=O)O)cn1-2 [Compound 205, 8-chloro-6-(2-fluorophenyl)-9-methoxy-4H-imidazo[1,2-a][1,4]benzodiazepine-2-carboxylic acid] | < 0.05 | > 100 | – |
| O=C(O)c1cn2c(n1)CN=C(c1ccccc1Br)c1cc(Cl)ccc1-2 [Compound 206, 6-(2-bromophenyl)-8-chloro-4H-imidazo[1,2-a][1,4]benzodiazepine-2-carboxylic acid] | < 0.05 | 50 to 100 | – |
| O=C(O)c1cn2c(n1)CN=C(c1ccccc1F)c1cc(Br)ccc1-2 [Compound 207, 8-bromo-6-(2-fluorophenyl)-4H-imidazo[1,2-a][1,4]benzodiazepine-2-carboxylic acid] | < 0.05 | > 100 | – |
| CS(=N)(=O)CCNC(=O)c1cn2c(n1)CN=C(c1ccccc1F)c1cc(Cl)ccc1-2 (stereo not drawn) [Compound 208, 8-chloro-6-(2-fluorophenyl)-N-[2-(methylsulfonimidoyl)ethyl]-4H-imidazo[1,2-a][1,4]benzodiazepine-2-carboxamide] | < 0.05 | 50 to 100 | – |
| CP(C)(=O)CCCNC(=O)c1cn2c(n1)CN=C(c1ccccc1F)c1cc(Cl)ccc1-2 [Compound 209, 8-chloro-N-(3-dimethylphosphorylpropyl)-6-(2-fluorophenyl)-4H-imidazo[1,2-a][1,4]benzodiazepine-2-carboxamide] | < 0.05 | 50 to 100 | – |
| NCCNC(=O)c1cn2c(n1)CN=C(c1ccccc1F)c1cc(Cl)ccc1-2 [Compound 210, N-(2-aminoethyl)-8-chloro-6-(2-fluorophenyl)-4H-imidazo[1,2-a][1,4]benzodiazepine-2-carboxamide] | < 0.05 | > 100 | – |
| COCCOCCOCCOCCNC(=O)c1cn2c(n1)CN=C(c1ccccc1F)c1cc(Cl)ccc1-2 [Compound 211, 8-chloro-6-(2-fluorophenyl)-N-[2-[2-[2-(2-methoxyethoxy)ethoxy]ethoxy]ethyl]-4H-imidazo[1,2-a][1,4]benzodiazepine-2-carboxamide] | 0.05 to 0.1 | > 100 | – |
| O=C(O)c1nc2n(c1C1CC1)-c1ccc(Cl)cc1C(c1ccccc1F)=NC2 [Compound 212, 8-chloro-1-cyclopropyl-6-(2-fluorophenyl)-4H-imidazo[1,2-a][1,4]benzodiazepine-2-carboxylic acid] | > 0.1 | > 100 | – |
| Cc1c(C(=O)O)nc2n1-c1ccc(Cl)cc1C(c1ccccc1F)=NC2 [Compound 213, 8-chloro-6-(2-fluorophenyl)-1-methyl-4H-imidazo[1,2-a][1,4]benzodiazepine-2-carboxylic acid] | < 0.05 | > 100 | – |
| O=C(O)c1cn2c(n1)CN=C(c1c(F)cccc1F)c1cc(Cl)ccc1-2 [Compound 214, 8-chloro-6-(2,6-difluorophenyl)-4H-imidazo[1,2-a][1,4]benzodiazepine-2-carboxylic acid] | < 0.05 | 50 to 100 | – |
| O=C(O)c1cn2c(n1)CN=C(c1cccc(F)c1F)c1cc(Cl)ccc1-2 [Compound 215, 8-chloro-6-(2,3-difluorophenyl)-4H-imidazo[1,2-a][1,4]benzodiazepine-2-carboxylic acid] | < 0.05 | > 100 | – |
| O=C(O)c1cn2c(n1)CN=C(c1ccc(F)cc1F)c1cc(Cl)ccc1-2 [Compound 216, 8-chloro-6-(2,4-difluorophenyl)-4H-imidazo[1,2-a][1,4]benzodiazepine-2-carboxylic acid] | – | < 50 | – |
| CCc1c(C(=O)O)nc2n1-c1ccc(Cl)cc1C(c1ccccc1F)=NC2 [Compound 217, 8-chloro-1-ethyl-6-(2-fluorophenyl)-4H-imidazo[1,2-a][1,4]benzodiazepine-2-carboxylic acid] | < 0.05 | > 100 | – |
| O=C(O)c1cn2c(n1)CN=C(c1cccc(F)c1)c1cc(Cl)ccc1-2 [Compound 218, 8-chloro-6-(3-fluorophenyl)-4H-imidazo[1,2-a][1,4]benzodiazepine-2-carboxylic acid] | > 0.1 | > 100 | – |
| O=C(O)c1cn2c(n1)CN=C(c1ccc(F)cc1)c1cc(Cl)ccc1-2 [Compound 219, 8-chloro-6-(4-fluorophenyl)-4H-imidazo[1,2-a][1,4]benzodiazepine-2-carboxylic acid] | – | 50 to 100 | – |
| O=C(O)c1cn2c(n1)CN=C(c1ccccc1Cl)c1cc(Cl)ccc1-2 [Compound 220, 8-chloro-6-(2-chlorophenyl)-4H-imidazo[1,2-a][1,4]benzodiazepine-2-carboxylic acid] | < 0.05 | > 100 | – |
| O=C(O)c1cn2c(n1)CN=C(c1ccccc1F)c1cc(F)ccc1-2 [Compound 221, 8-fluoro-6-(2-fluorophenyl)-4H-imidazo[1,2-a][1,4]benzodiazepine-2-carboxylic acid] | 0.05 to 0.1 | 50 to 100 | – |
| O=C(O)c1cn2c(n1)CN=C(c1ccccc1F)c1cc(C3CC3)ccc1-2 [Compound 222, 8-cyclopropyl-6-(2-fluorophenyl)-4H-imidazo[1,2-a][1,4]benzodiazepine-2-carboxylic acid] | 0.05 to 0.1 | > 100 | – |
| O=C(O)c1cn2c(n1)CN=C(c1ccccc1Cl)c1cc(F)ccc1-2 [Compound 223] | < 0.05 | < 50 | – |
| O=C(O)c1cn2c(n1)CN=C(c1ccccc1F)c1cccc(Cl)c1-2 [Compound 224] | > 0.1 | < 50 | – |
| O=C(O)c1cn2c(n1)CN=C(c1ccccc1F)c1ccc(Cl)cc1-2 [Compound 225, 9-chloro-6-(2-fluorophenyl)-4H-imidazo[1,2-a][1,4]benzodiazepine-2-carboxylic acid] | – | < 50 | – |
